According to ChEMBL document CHEMBL1159126, “Salicylanilide carbamates: antitubercular agents active against multidrug-resistant Mycobacterium tuberculosis strains” (Bioorg Med Chem, 2010):
≈ marks a conversion by molar mass, not a printed value.

Assays:
Mycobacterium avium [1] = test: Antimycobacterial activity against Mycobacterium avium 330/88 after 21 days by micromethod; format: functional; conditions: 330/88, 504 h
Mycobacterium avium [2] = test: Antimycobacterial activity against Mycobacterium avium 330/88 after 14 days by micromethod; format: functional; conditions: 330/88, 336 h
[3] = tested on: Mycobacterium tuberculosis; test: microbe, parasite or virus in culture; conditions: 331/88, 504 h
Description: Antimycobacterial activity against Mycobacterium tuberculosis 331/88 after 21 days by micromethod

Mycobacterium kansasii [4] = test: Antimycobacterial activity against Mycobacterium kansasii 6509/96 after 21 days by micromethod; format: functional; conditions: 6509/96, 504 h
Mycobacterium kansasii [5] = test: Antimycobacterial activity against Mycobacterium kansasii 6509/96 after 14 days by micromethod; format: functional; conditions: 6509/96, 336 h
Mycobacterium kansasii [6] = test: Antimycobacterial activity against Mycobacterium kansasii 235/80 after 14 days by micromethod; format: functional; conditions: 235/80, 336 h
[7] = tested on: Mycobacterium tuberculosis; test: microbe, parasite or virus in culture; conditions: 331/88, 336 h
Description: Antimycobacterial activity against Mycobacterium tuberculosis 331/88 after 14 days by micromethod

[8] = Partition coefficient, log P of the compound; format: physicochemical; conditions: octanol/water
Mycobacterium kansasii [9] = test: Antimycobacterial activity against Mycobacterium kansasii 235/80 after 21 days by micromethod; format: functional; conditions: 235/80, 504 h
[10] = Stability in 100 mM phosphate buffer at pH 6 assessed as compound degradation by HPLC; format: physicochemical
[11] = Stability in 100 mM phosphate buffer at pH 7 assessed as compound degradation by HPLC; format: physicochemical
[12] = Stability in 100 mM phosphate buffer at pH 7.4 assessed as compound degradation by HPLC; format: physicochemical
[13] = Stability in 100 mM phosphate buffer at pH 5 assessed as compound degradation by HPLC; format: physicochemical
[14] = Stability in 100 mM phosphate buffer at pH 8 assessed as compound degradation by HPLC; format: physicochemical
[15] = Stability in 100 mM phosphate buffer at pH 4 assessed as compound degradation by HPLC; format: physicochemical
[16] = Toxicity against human HCT8 cells after 72 hrs by XTT assay; format: cell-based, HCT-8
[17] = Stability in 100 mM phosphate buffer at pH 3 assessed as compound degradation by HPLC; format: physicochemical

| Structure (SMILES) | MIC (Mycobacterium avium [1]) | MIC (Mycobacterium avium [2]) | MIC [3] | MIC (Mycobacterium kansasii [4]) | MIC (Mycobacterium kansasii [5]) | MIC (Mycobacterium kansasii [6]) | MIC [7] | logP [8] | MIC (Mycobacterium kansasii [9]) | half-life [10] | half-life [11] | half-life [12] | Stability [13] | half-life [14] | Stability [15] | EC50 at 72 h [16] | Stability [17] |
| --- | --- | --- | --- | --- | --- | --- | --- | --- | --- | --- | --- | --- | --- | --- | --- | --- | --- |
| CCCCCCCCCCNC(=O)Oc1ccc(Cl)cc1C(=O)Nc1ccc(Cl)c(Cl)c1 | 8 µM (≈ 4 µg/mL) | 8 µM (≈ 4 µg/mL) | 2 µM (≈ 1 µg/mL) | 4 µM (≈ 2 µg/mL) | 2 µM (≈ 1 µg/mL) | 4 µM (≈ 2 µg/mL) | 2 µM (≈ 1 µg/mL) | 7.77 | 4 µM (≈ 2 µg/mL) |  |  |  |  |  |  |  |  |
| CCCCCCCCCNC(=O)Oc1ccc(Cl)cc1C(=O)Nc1ccc(Cl)cc1 | 16 µM (≈ 7.22 µg/mL) | 8 µM (≈ 3.61 µg/mL) | 2 µM (≈ 0.903 µg/mL) | 4 µM (≈ 1.81 µg/mL) | 4 µM (≈ 1.81 µg/mL) | 4 µM (≈ 1.81 µg/mL) | 2 µM (≈ 0.903 µg/mL) | 6.78 | 4 µM (≈ 1.81 µg/mL) |  |  |  |  |  |  |  |  |
| CCCCCCCCCCCNC(=O)Oc1ccc(Cl)cc1C(=O)Nc1ccc(Cl)cc1 | 8 µM (≈ 3.84 µg/mL) | 8 µM (≈ 3.84 µg/mL) | 2 µM (≈ 0.959 µg/mL) | 8 µM (≈ 3.84 µg/mL) | 8 µM (≈ 3.84 µg/mL) | 8 µM (≈ 3.84 µg/mL) | 2 µM (≈ 0.959 µg/mL) | 7.61 | 8 µM (≈ 3.84 µg/mL) |  |  |  |  |  |  |  |  |
| CCCCNC(=O)Oc1ccc(Cl)cc1C(=O)Nc1cccc(Cl)c1 | 16 µM (≈ 6.1 µg/mL) | 8 µM (≈ 3.05 µg/mL) | 4 µM (≈ 1.53 µg/mL) | 16 µM (≈ 6.1 µg/mL) | 8 µM (≈ 3.05 µg/mL) | 16 µM (≈ 6.1 µg/mL) | 2 µM (≈ 0.763 µg/mL) | 4.69 | 16 µM (≈ 6.1 µg/mL) |  |  |  |  |  |  |  |  |
| CCCCCCNC(=O)Oc1ccc(Cl)cc1C(=O)Nc1ccc(Cl)cc1 | 8 µM (≈ 3.27 µg/mL) | 4 µM (≈ 1.64 µg/mL) | 2 µM (≈ 0.819 µg/mL) | 4 µM (≈ 1.64 µg/mL) | 2 µM (≈ 0.819 µg/mL) | 4 µM (≈ 1.64 µg/mL) | 1 µM (≈ 0.409 µg/mL) | 5.53 | 4 µM (≈ 1.64 µg/mL) |  |  |  |  |  |  |  |  |
| CCCCCCCCCCCNC(=O)Oc1ccc(Cl)cc1C(=O)Nc1cccc(Cl)c1 | 8 µM (≈ 3.84 µg/mL) | 8 µM (≈ 3.84 µg/mL) | 2 µM (≈ 0.959 µg/mL) | 8 µM (≈ 3.84 µg/mL) | 8 µM (≈ 3.84 µg/mL) | 8 µM (≈ 3.84 µg/mL) | 2 µM (≈ 0.959 µg/mL) | 7.61 | 8 µM (≈ 3.84 µg/mL) |  |  |  |  |  |  |  |  |
| CCCCCCNC(=O)Oc1ccc(Cl)cc1C(=O)Nc1ccc(Cl)c(Cl)c1 | 8 µM (≈ 3.55 µg/mL) | 4 µM (≈ 1.78 µg/mL) | 0.5 µM (≈ 0.222 µg/mL) | 2 µM (≈ 0.888 µg/mL) | 1 µM (≈ 0.444 µg/mL) | 2 µM (≈ 0.888 µg/mL) | 0.5 µM (≈ 0.222 µg/mL) | 6.08 | 2 µM (≈ 0.888 µg/mL) | 118 h | 64 h | 43 h | Stable | 5 h | Stable | 27.9 µM | Stable |
| CCCCCCCCCNC(=O)Oc1ccc(Cl)cc1C(=O)Nc1cccc(Cl)c1 | 4 µM (≈ 1.81 µg/mL) | 2 µM (≈ 0.903 µg/mL) | 2 µM (≈ 0.903 µg/mL) | 4 µM (≈ 1.81 µg/mL) | 4 µM (≈ 1.81 µg/mL) | 4 µM (≈ 1.81 µg/mL) | 1 µM (≈ 0.451 µg/mL) | 6.78 | 4 µM (≈ 1.81 µg/mL) |  |  |  |  |  |  |  |  |
| NNC(=O)c1ccncc1 [ISONIAZID] | > 250 µM | > 250 µM | 0.5 µM (≈ 0.0686 µg/mL) | 4 µM (≈ 0.549 µg/mL) | 4 µM (≈ 0.549 µg/mL) | > 250 µM | 0.5 µM (≈ 0.0686 µg/mL) |  | > 250 µM |  |  |  |  |  |  | > 100 µM |  |
| CCCCCCCCCCNC(=O)Oc1ccc(Cl)cc1C(=O)Nc1cccc(Cl)c1 | 8 µM (≈ 3.72 µg/mL) | 8 µM (≈ 3.72 µg/mL) | 2 µM (≈ 0.931 µg/mL) | 8 µM (≈ 3.72 µg/mL) | 8 µM (≈ 3.72 µg/mL) | 8 µM (≈ 3.72 µg/mL) | 1 µM (≈ 0.465 µg/mL) | 7.19 | 8 µM (≈ 3.72 µg/mL) |  |  |  |  |  |  |  |  |
| CCCCCCNC(=O)Oc1ccc(Cl)cc1C(=O)Nc1cccc(Cl)c1 | 8 µM (≈ 3.27 µg/mL) | 8 µM (≈ 3.27 µg/mL) | 1 µM (≈ 0.409 µg/mL) | 4 µM (≈ 1.64 µg/mL) | 4 µM (≈ 1.64 µg/mL) | 4 µM (≈ 1.64 µg/mL) | 0.5 µM (≈ 0.205 µg/mL) | 5.53 | 4 µM (≈ 1.64 µg/mL) |  |  |  |  |  |  | 14.9 µM |  |
| CCNC(=O)Oc1ccc(Cl)cc1C(=O)Nc1ccc(Cl)c(Cl)c1 | 32 µM (≈ 12.4 µg/mL) | 16 µM (≈ 6.2 µg/mL) | 1 µM (≈ 0.388 µg/mL) | 4 µM (≈ 1.55 µg/mL) | 2 µM (≈ 0.775 µg/mL) | 2 µM (≈ 0.775 µg/mL) | 0.5 µM (≈ 0.194 µg/mL) | 4.35 | 4 µM (≈ 1.55 µg/mL) |  |  |  |  |  |  | 31 µM |  |
| CCNC(=O)Oc1ccc(Cl)cc1C(=O)Nc1cccc(Cl)c1 | 8 µM (≈ 2.83 µg/mL) | 8 µM (≈ 2.83 µg/mL) | 2 µM (≈ 0.706 µg/mL) | 8 µM (≈ 2.83 µg/mL) | 8 µM (≈ 2.83 µg/mL) | 8 µM (≈ 2.83 µg/mL) | 2 µM (≈ 0.706 µg/mL) | 3.79 | 8 µM (≈ 2.83 µg/mL) |  |  |  |  |  |  |  |  |
| CCCCCCCNC(=O)Oc1ccc(Cl)cc1C(=O)Nc1ccc(Cl)cc1 | 8 µM (≈ 3.39 µg/mL) | 8 µM (≈ 3.39 µg/mL) | 2 µM (≈ 0.847 µg/mL) | 4 µM (≈ 1.69 µg/mL) | 4 µM (≈ 1.69 µg/mL) | 8 µM (≈ 3.39 µg/mL) | 2 µM (≈ 0.847 µg/mL) | 5.94 | 8 µM (≈ 3.39 µg/mL) |  |  |  |  |  |  |  |  |
